Starred links: 1 amine or outer side, 2 acyl side, 3 side chain; linkers in the order of their positions; H or OH if unused. Positions of bridges follow the written chain, without caps; N, C: chain ends. Non-standard residues stand in square brackets, D forms with d. Residues, ends and D or L forms follow the SMILES beside them. Groups on a side chain read outwards from the residue. *: point of attachment. Trp(1-Me) = Cn1cc(C[C@H](N)C(=O)O)c2ccccc21; C18 diacid = O=C(O)CCCCCCCCCCCCCCCCC(=O)*; γGlu = O=C(O)[C@H](CCC(=O)[*:2])N[*:1]; AEEA = NCCOCCOCC(=O)O; Aoc = NCCCCCCCC(=O)O; Sar = CNCC(=O)O Bounds are passed on as bounds.

For the first assay, the system named is classical complement pathway. Briefly: In vitro haemolysis assay (inhibition of classical complement pathway). The format is cell-based, human. Conditions: human serum, sensitized sheep red blood cells; Table 3, given as upper bounds; read-out: IC50, inhibition of hemolysis. The method in brief: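 Compound dilutions preincubated 15 min at room temperature with diluted human serum (titrated per batch for 70-90% maximal haemolysis), then antibody-sensitized sheep RBC (10^7/well) added for 30 min at 37 °C in Tris/casein buffer, pH 7.4. Stopped with EDTA; haemolysis read at 405 nm; IC50 by 4PL fit.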
In the case of `CC[C@H](C)[C@@H]1NC(=O)[C@@H](NC(=O)[C@H](Cc2ccccc2)NC(=O)[C@H](CCC(=O)O)NC(=O)[C@H](CO)NC(C)=O)CSSC[C@@H](C(=O)N[C@H](C(=O)N[C@@H](CCC(=O)O)C(=O)NCC(=O)N[C@@H](CCC(=O)O)C(=O)NCCCCCCCC(=O)N[C@@H](CCC(=O)O)C(=O)N[C@@H](CCCCNC(=O)CC[C@H](NC(=O)CNC(=O)CC[C@H](NC(=O)CCCCCCCCCCCCCCCCC(=O)O)C(=O)O)C(=O)O)C(N)=O)[C@@H](C)O)NC(=O)[C@H](CCCNC(=N)N)NC(=O)[C@H](Cc2c[nH]cn2)NC(=O)[C@H](CCC(=O)O)NC(=O)CNC(=O)[C@H](Cc2c[nH]c3ccccc23)NC(=O)[C@H](CC(=O)O)NC(=O)[C@H](CCC(N)=O)NC(=O)[C@H](Cc2cn(C)c3ccccc23)NC1=O` [Compound 137] (Ac-SEFCI[Trp(1-Me)]QDWGEHRCTEGE[Aoc]EK([γGlu-Gly-γGlu-C18 diacid])-NH2; disulfide 4-14), the IC50 is less than 100 nM.
As for `CC[C@H](C)[C@@H]1NC(=O)[C@@H](NC(=O)[C@H](Cc2ccccc2)NC(=O)[C@H](CCC(=O)O)NC(=O)[C@H](CO)NC(C)=O)CSSC[C@@H](C(=O)N(C)CC(=O)N[C@@H](CCC(=O)O)C(=O)NCC(=O)N[C@@H](C)C(=O)N[C@@H](CCCCNC(=O)COCCOCCNC(=O)CC[C@H](NC(=O)COCCOCCNC(=O)CNC(=O)CC[C@H](NC(=O)CCCCCCCCCCCCCCCCC(=O)O)C(=O)O)C(=O)O)C(N)=O)NC(=O)[C@H](CCCNC(=N)N)NC(=O)[C@H](Cc2c[nH]cn2)NC(=O)[C@H](CCC(=O)O)NC(=O)CNC(=O)[C@H](Cc2c[nH]c3ccccc23)NC(=O)[C@H](CCC(=O)O)NC(=O)[C@H](CCC(N)=O)NC(=O)[C@H](Cc2cn(C)c3ccccc23)NC1=O` [Compound 120] (Ac-SEFCI[Trp(1-Me)]QEWGEHRC[Sar]EGAK([AEEA-γGlu-AEEA-Gly-γGlu-C18 diacid])-NH2; disulfide 4-14), the IC50 is less than 250 nM.
On the same count and under the same terms, as for `CC[C@H](C)[C@@H]1NC(=O)[C@@H](NC(=O)[C@H](Cc2ccccc2)NC(=O)[C@H](CCC(=O)O)NC(=O)[C@H](CO)NC(C)=O)CSSC[C@@H](C(=O)N(C)CC(=O)N[C@@H](CCC(=O)O)C(=O)NCC(=O)N[C@@H](CCC(=O)O)C(=O)NCCOCCOCC(=O)N[C@@H](CCC(=O)O)C(=O)N[C@@H](CO)C(=O)N[C@@H](CCCCNC(=O)CC[C@H](NC(=O)CNC(=O)CC[C@H](NC(=O)CCCCCCCCCCCCCCCCC(=O)O)C(=O)O)C(=O)O)C(N)=O)NC(=O)[C@H](CCCNC(=N)N)NC(=O)[C@H](Cc2c[nH]cn2)NC(=O)[C@H](CCC(=O)O)NC(=O)CNC(=O)[C@H](Cc2c[nH]c3ccccc23)NC(=O)[C@H](CC(=O)O)NC(=O)[C@H](CCC(N)=O)NC(=O)[C@H](Cc2cn(C)c3ccccc23)NC1=O` [Compound 140] (Ac-SEFCI[Trp(1-Me)]QDWGEHRC[Sar]EGE[AEEA]ESK([γGlu-Gly-γGlu-C18 diacid])-NH2; disulfide 4-14), the figure is less than 100 nM; as for `CC[C@H](C)[C@@H]1NC(=O)[C@@H](NC(=O)[C@H](Cc2ccccc2)NC(=O)[C@H](CCC(=O)O)NC(=O)[C@H](CO)NC(C)=O)CSSC[C@@H](C(=O)N(C)CC(=O)N[C@@H](CCC(=O)O)C(=O)NCC(=O)N[C@@H](C)C(=O)N[C@@H](CCCCNC(=O)COCCOCCNC(=O)CC[C@H](NC(=O)COCCOCCNC(=O)CNC(=O)CC[C@H](NC(=O)CCCCCCCCCCCCCCCCC(=O)O)C(=O)O)C(=O)O)C(N)=O)NC(=O)[C@H](CCCNC(=N)N)NC(=O)[C@H](Cc2c[nH]cn2)NC(=O)[C@H](CCC(=O)O)NC(=O)CNC(=O)[C@H](Cc2c[nH]c3ccccc23)NC(=O)[C@H](CC(=O)O)NC(=O)[C@H](CCC(N)=O)NC(=O)[C@H](Cc2cn(C)c3ccccc23)NC1=O` [Compound 119] (Ac-SEFCI[Trp(1-Me)]QDWGEHRC[Sar]EGAK([AEEA-γGlu-AEEA-Gly-γGlu-C18 diacid])-NH2; disulfide 4-14), less than 100 nM; as for `CC[C@H](C)[C@H](NC(C)=O)C(=O)N[C@H]1CSSC[C@@H](C(=O)N[C@H](C(N)=O)[C@@H](C)O)NC(=O)[C@H](CCCNC(=N)N)NC(=O)[C@H](Cc2c[nH]cn2)NC(=O)[C@H](CC(=O)O)NC(=O)CNC(=O)[C@H](Cc2c[nH]c3ccccc23)NC(=O)[C@H](CC(=O)O)NC(=O)[C@H](CCC(N)=O)NC(=O)[C@H](Cc2c[nH]c3ccccc23)NC(=O)[C@H]([C@@H](C)CC)NC1=O` [Compound 17] (Ac-ICIWQDWGDHRCT-NH2; disulfide 2-12), less than 100 nM.
Take `CC[C@H](C)[C@H](NC(C)=O)C(=O)N[C@H]1CSSC[C@@H](C(=O)N[C@H](C(=O)N[C@@H](CCC(=O)O)C(=O)NCC(=O)N[C@@H](CCCCN)C(N)=O)[C@@H](C)O)NC(=O)[C@H](CCCNC(=N)N)NC(=O)[C@H](Cc2c[nH]cn2)NC(=O)[C@H](CCC(=O)O)NC(=O)CNC(=O)[C@H](Cc2c[nH]c3ccccc23)NC(=O)[C@H](CC(=O)O)NC(=O)[C@H](CCC(N)=O)NC(=O)[C@H](Cc2c[nH]c3ccccc23)NC(=O)[C@H]([C@@H](C)CC)NC1=O` [Compound 39] (Ac-ICIWQDWGEHRCTEGK-NH2; disulfide 2-12): the half-inhibitory concentration (IC50) is less than 100 nM.
Consider `CC[C@H](C)[C@@H]1NC(=O)[C@@H](NC(=O)[C@H](Cc2ccc(O)cc2)NC(=O)[C@H](CCC(=O)O)NC(=O)[C@H](CO)NC(C)=O)CSSC[C@@H](C(=O)N(C)CC(=O)N[C@@H](CCC(=O)O)C(=O)N[C@@H](C)C(N)=O)NC(=O)[C@H](CCCNC(=N)N)NC(=O)[C@H](Cc2c[nH]cn2)NC(=O)[C@H](CCC(=O)O)NC(=O)CNC(=O)[C@H](Cc2c[nH]c3ccccc23)NC(=O)[C@H](CC(=O)O)NC(=O)[C@H](CCC(N)=O)NC(=O)[C@H](Cc2cn(C)c3ccccc23)NC1=O` [Compound 71] (Ac-SEYCI[Trp(1-Me)]QDWGEHRC[Sar]EA-NH2; disulfide 4-14), for which the IC50 was less than 100 nM.
Same read-out and setting: next, `CC[C@H](C)[C@@H]1NC(=O)[C@@H](NC(=O)[C@H](Cc2ccc(O)cc2)NC(=O)[C@H](C)NC(=O)[C@H](CO)NC(=O)CNC(=O)[C@H](CCC(=O)O)NC(C)=O)CSSC[C@@H](C(=O)N(C)CC(=O)N[C@@H](CCC(=O)O)C(N)=O)NC(=O)[C@H](CCCNC(=N)N)NC(=O)[C@H](Cc2c[nH]cn2)NC(=O)[C@H](CCC(=O)O)NC(=O)CNC(=O)[C@H](Cc2c[nH]c3ccccc23)NC(=O)[C@H](CCC(=O)O)NC(=O)[C@H](CCC(N)=O)NC(=O)[C@H](Cc2cn(C)c3ccccc23)NC1=O` [Compound 70] (Ac-EGSAYCI[Trp(1-Me)]QEWGEHRC[Sar]E-NH2; disulfide 6-16): less than 100 nM; `CC[C@H](C)[C@@H]1NC(=O)[C@@H](NC(=O)[C@H](Cc2ccccc2)NC(=O)[C@H](CCC(=O)O)NC(=O)[C@H](CO)NC(C)=O)CSSC[C@@H](C(=O)N(C)CC(=O)N[C@@H](CCC(=O)O)C(=O)NCC(=O)N[C@@H](CCC(=O)O)C(=O)NCCOCCOCC(=O)NCCOCCOCC(=O)NCCOCCOCC(=O)N[C@@H](CCCCNC(=O)CC[C@H](NC(=O)CNC(=O)CC[C@H](NC(=O)CCCCCCCCCCCCCCCCC(=O)O)C(=O)O)C(=O)O)C(N)=O)NC(=O)[C@H](CCCNC(=N)N)NC(=O)[C@H](Cc2c[nH]cn2)NC(=O)[C@H](CCC(=O)O)NC(=O)CNC(=O)[C@H](Cc2c[nH]c3ccccc23)NC(=O)[C@H](CC(=O)O)NC(=O)[C@H](CCC(N)=O)NC(=O)[C@H](Cc2cn(C)c3ccccc23)NC1=O` [Compound 143] (Ac-SEFCI[Trp(1-Me)]QDWGEHRC[Sar]EGE[AEEA][AEEA][AEEA]K([γGlu-Gly-γGlu-C18 diacid])-NH2; disulfide 4-14): less than 100 nM.
Still for that read-out and setting: as for `CC[C@H](C)[C@H](NC(C)=O)C(=O)N[C@H]1CSSC[C@@H](C(=O)N[C@H](C(=O)N[C@@H](CCC(=O)O)C(N)=O)[C@@H](C)O)NC(=O)[C@H](CCCNC(=N)N)NC(=O)[C@H](Cc2c[nH]cn2)NC(=O)[C@H](CCC(=O)O)NC(=O)CNC(=O)[C@H](Cc2c[nH]c3ccccc23)NC(=O)[C@H](CC(=O)O)NC(=O)[C@H](CCC(N)=O)NC(=O)[C@H](Cc2c[nH]c3ccccc23)NC(=O)[C@H]([C@@H](C)CC)NC1=O` [Compound 26] (Ac-ICIWQDWGEHRCTE-NH2; disulfide 2-12), the figure is less than 100 nM.
On the same count and under the same terms, as for `CC[C@H](C)[C@H](NC(C)=O)C(=O)N[C@H]1CSSC[C@@H](C(=O)N(C)CC(N)=O)NC(=O)[C@H](CCCNC(=N)N)NC(=O)[C@H](Cc2c[nH]cn2)NC(=O)[C@H](CCC(=O)O)NC(=O)CNC(=O)[C@H](Cc2c[nH]c3ccccc23)NC(=O)[C@H](CC(=O)O)NC(=O)[C@H](CCC(N)=O)NC(=O)[C@H](Cc2c[nH]c3ccccc23)NC(=O)[C@H]([C@@H](C)CC)NC1=O` [Compound 13] (Ac-ICIWQDWGEHRC[Sar]-NH2; disulfide 2-12), the figure is less than 100 nM.
For the compound `CC[C@H](C)[C@@H]1NC(=O)[C@@H](NC(=O)[C@H](Cc2ccc(O)cc2)NC(C)=O)CSSC[C@@H](C(=O)N[C@H](C(N)=O)[C@@H](C)O)NC(=O)[C@H](CCCNC(=N)N)NC(=O)[C@H](Cc2c[nH]cn2)NC(=O)[C@H](CCC(=O)O)NC(=O)CNC(=O)[C@H](Cc2c[nH]c3ccccc23)NC(=O)[C@H](CC(=O)O)NC(=O)[C@H](CCC(N)=O)NC(=O)[C@H](Cc2c[nH]c3ccccc23)NC1=O` [Compound 9] (Ac-YCIWQDWGEHRCT-NH2; disulfide 2-12), the IC50 is less than 100 nM.

The same assay, now with this note: human serum, sensitized sheep red blood cells; Table 4, valine 3 vs isoleucine 3 pairs; read-out: CP hemolysis IC50.
Turning to `CC[C@H](C)[C@H](NC(C)=O)C(=O)N[C@H]1CSSC[C@@H](C(=O)N[C@H](C(N)=O)[C@@H](C)O)NC(=O)[C@H](CO)NC(=O)[C@H](Cc2c[nH]cn2)NC(=O)[C@H](CCC(=O)O)NC(=O)CNC(=O)[C@H](Cc2c[nH]c3ccccc23)NC(=O)[C@H](CC(=O)O)NC(=O)[C@H](CCC(N)=O)NC(=O)[C@H](Cc2c[nH]c3ccccc23)NC(=O)[C@H](C(C)C)NC1=O` [F, reference compound] (Ac-ICVWQDWGEHSCT-NH2; disulfide 2-12), the IC50 is 540 nM.
Still for that read-out and setting: next, `CC[C@H](C)[C@H](NC(C)=O)C(=O)N[C@H]1CSSC[C@@H](C(=O)N[C@@H](CO)C(N)=O)NC(=O)[C@H](CCCNC(=N)N)NC(=O)[C@H](Cc2c[nH]cn2)NC(=O)[C@H](CCC(=O)O)NC(=O)CNC(=O)[C@H](Cc2c[nH]c3ccccc23)NC(=O)[C@H](CC(=O)O)NC(=O)[C@H](CCC(N)=O)NC(=O)[C@H](Cc2c[nH]c3ccccc23)NC(=O)[C@H](C(C)C)NC1=O` [G, reference compound] (Ac-ICVWQDWGEHRCS-NH2; disulfide 2-12): 180 nM.

One may read the IC50 as the point on the concentration scale where inhibition reaches its midpoint.
